Test results: publication PMC12664080, “Tetrazole-containing naphthalene bis-sulfonamide Keap1-Nrf2 interaction inhibitors with unexpected binding modes” (Redox Biology, 2025)
One block for each compound: values may come before it.

Columns and labels:
NQO1 = NQO1 induction assay in Hepa1c1c7 cells; type: cell-based, mouse; conditions: Mus musculus, Hepa-1c1c7, 10 μM
Procedure: The method using Hepa1c1c7 cells has been described previously. Briefly, cells were seeded into 96-well plates (2 × 10^4 cells/200 μL per well) then incubated overnight at 37 °C. The cells were treated with compound (10 μM final concentration) or vehicle (final DMSO concentration 0.1 % DMSO) and incubated for a further 24 h or 48 h. The culture medium was aspirated and the cells treated with lysis buffer (50 μL per well, 0.1 % Tween 20 in 2 mM EDTA (pH 7.5)) then agitated for 15 min. Enzyme reaction mixture was added to each well (200 μL of 25 mM Tris buffer (pH 7.5) containing BSA (0.067 %), Tween20 (0.01 %), FAD (5 μM), G6P (1 mM), NADP (30 μM), G6P dehydrogenase (40 units), MTT (0.03 %), menadione (50 μM)) for 5 min then stop solution was applied (40 μL of 10 % SDS, final concentration 1.5 % SDS). Following brief agitation of the plate, the absorbance at 595 nm was measured. The background optical density was measured from wells containing tissue culture medium, lysis buffer, enzyme and stop solutions in the absence of Hepa1c1c7 cells. The change in background-corrected NQO1 activity (change in optical density) relative to the control was determined for each compound.

[1] = 1D 1H NMR lineshape analysis of cis/trans rotamer exchange; conditions: DMSO; for kA→B / ΔH^‡AB / ΔHAB: lineshape; for ΔH^‡AB: Eyring; for ΔHAB: van't Hoff
Procedure: Exchange was quantified using a two-site exchange model [40] implemented in Julia, where resonances were fitted to calculate chemical shifts of the two states and the exchange rates kAB and kBA between them. […] Reported uncertainties were determined from the standard errors of the fits.
Exchange rates kAB and kBA were used to determine the relative populations pA=kBA/kAB+kBA and pB=kAB/kAB+kBA and were fitted to van't Hoff and Eyring equations (with unit transmission coefficient) to estimate the enthalpy and entropy changes and enthalpy and entropy of activation.

Nrf2 = Nrf2 luciferase reporter assay (MCF7 ARE-luciferase reporter cell line); type: cell-based; conditions: Homo sapiens; 100 μM (highest test concentration), MCF7 cells; read-out: peak fold induction of luciferase activity
Procedure: The induction of luciferase activity in the stably transfected MCF7 ARE-luciferase reporter cell line was measured using an adaptation of a published procedure. […] The cells were treated with compound or vehicle control (1 % final DMSO concentration) and incubated for a further 24 h. The culture medium was aspirated and the cells were washed with 100 μL per well PBS. The cells were lysed using 75 μL per well lysis buffer (0.2 % Triton X-100 in 25 mM Tris pH 7.5) under gentle agitation at rt for 30 min. The samples were transferred to 500 μL Eppendorf tubes and centrifuged at 10000 g for 5 min at 4 °C. 50 μL of supernatant from each sample were transferred to a new 96 well plate. 50 uL of working reagent (100 mM Tris pH 8.0, 5 mM MgCl2, 100 μM coenzyme A, 80 μM luciferin, and 5 mM ATP) were added to each well and the luciferase activity was measured.

Keap1 Kelch domain [2] = target: T1, Keap1 Kelch domain (Homo sapiens, UniProt Q14145); assay: Differential scanning fluorimetry (DSF) thermal shift assay; type: binding; conditions: 10 μM compound; Keap1 vehicle control Ti = 61.3 ± 0.3 °C
T1 construct: made in house
Procedure: The DSF assays were carried out according to the previously described method. Solutions of the Keap1 Kelch domain protein (5 μM final concentration) and the small molecule inhibitor (10 μM final concentration) were prepared in DPBS at pH 7.4 (10 % final DMSO concentration, 20 μL final volume) in an Eppendorf tube. The solution was centrifuged briefly (1500 rpm, 60 s) to remove any particulates and mix the samples, followed by a 30 min incubation at RT. The samples were loaded into Tycho NT.6 capillaries (Nanotemper) in triplicate and positioned in the […] instrument. […] The fluorescence ratio vs temperature was plotted and the inflection temperature (Ti) of the profile was recorded. Changes in inflection (ΔTi) for the inhibitors were calculated by subtracting the mean Ti of the Keap1 sample plus vehicle from the mean Keap1 plus binder value (n = 3).

Keap1 Kelch domain [3] = target: T1, Keap1 Kelch domain; assay: Fluorescence polarisation (FP) competition assay; type: binding; conditions: for inhibition at 10 µM: read-out: FP percentage inhibition at 10 μM concentration of inhibitor; for IC50: 200 nM Keap1 Kelch domain, 1 nM FITC-β-DEETGEF-OH
Procedure: The FP assays were carried out according to previously described methods [[23],[31], [32], [33], [34]]. […] Following incubation under slow agitation (30 min at rt in the absence of light), the plates were transferred to a PHERAstar microplate reader and the FP was recorded. All measurements were recorded in triplicate. The data were normalised to the control and then fitted to a standard four-parameter logistic function using the Origin Pro software.

Keap1 Kelch domain [4] = target: T1, Keap1 Kelch domain; assay: Isothermal titration calorimetry (ITC); type: binding; conditions: 25 °C; read-out: ITC Kd
Procedure: The measurements were performed as described previously. The small molecule inhibitor at 500 μM was titrated over 30 injections against 50 μM protein in buffer containing 25 mM HEPES (pH 7.4), 200 mM NaCl and 5 % DMSO. ITC experiments were performed using a MicroCal PEAQ-ITC instrument (Malvern Instruments, UK) at 25 °C with a stirring speed of 750 rpm. The first injection volume was of 0.3 μL followed by 29 injections of 1.3 μL and a gap of 120 s between each injection. Data analyses were performed as previously described. Each small molecule ITC measurement was performed in duplicate and resultant values obtained were averaged after independent analysis.

Keap1 = Keap1 (Homo sapiens, UniProt Q14145); assay: Microscale thermophoresis (MST); conditions: 10 nM Keap1
Chain of Keap1 (Q14145 322-609): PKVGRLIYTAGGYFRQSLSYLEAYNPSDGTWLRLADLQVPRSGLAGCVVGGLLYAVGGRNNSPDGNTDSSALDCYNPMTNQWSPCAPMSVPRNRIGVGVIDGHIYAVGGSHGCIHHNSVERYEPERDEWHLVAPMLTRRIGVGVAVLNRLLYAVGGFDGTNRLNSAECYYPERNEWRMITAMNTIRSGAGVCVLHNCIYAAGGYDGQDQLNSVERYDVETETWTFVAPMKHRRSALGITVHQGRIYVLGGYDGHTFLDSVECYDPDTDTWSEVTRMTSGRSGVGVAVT
Procedure: Keap1 was labelled using the Protein Labelling Kit RED-NHS 2nd Generation (NanoTemper, München, Germany). Keap1 was diluted to 2 μM in RED-NHS Labelling Buffer. 10 μg of RED-NHS 2nd Generation labelling dye was freshly dissolved in 25 μL of DMSO to yield a concentration of 600 μM, then further diluted in RED-NHS Labelling Buffer to 300 μM. A volume of 20 μL of the 300 μM labelling dye was thoroughly mixed with 180 μL of 2 μM Keap1 and incubated at rt in a dark environment for 3 h. […] The sample was transferred to the centre of the resin bed in the B-column. 550 μL of Keap1 MST buffer was pipetted into the B-column and allowed to enter completely, followed by elution of the sample with 450 μL of Keap1 MST buffer and the flow-through was collected into a 1.5 mL Eppendorf tube. The collected sample was centrifuged at 15,000×g for 10 min at 4 °C to remove aggregates. Protein concentration in the collected sample was determined using the NanoDrop spectrophotometer. The sample was then tested in MST pre-test to evaluate the labelling quality.
Labelled Keap1 was diluted to 20 nM in Keap1 MST buffer prior to the reaction setup. […] An equal volume of 20 nM Keap1 was thoroughly mixed with each diluted sample and incubated for 30 min at rt. […] An equal volume of 2 nM Keap1 was mixed with each diluted sample and incubated at rt for 30 min. Incubated samples were loaded into Monolith NT.115 standard capillaries and measured using the Monolith NT.115^Pico instrument in triplicate. Parameters and measurements were set and controlled by the MO.Control software and collected datasets were analysed using the MO.Affinity Analysis software.

T1 sequence (Q14145 322-609): as above

SMILES: COc1ccc(S(=O)(=O)N(CC(=O)O)c2ccc(N(CC(=O)O)S(=O)(=O)c3ccc(OC)cc3)c3ccccc23)cc1 [Compound 2, 2,2'-(Naphthalene-1,4-diylbis(((4-methoxyphenyl)sulfonyl)azanediyl))diacetic acid, reference compound]
fold induction at 10 µM (NQO1): 2.34 ± 0.35
Occupancy of the more shielded state (A) ([1]; 300 K): 0.426 ±0.001
kA→B ([1]; 300 K): 3.175 ± 0.005 s⁻¹
Occupancy of the more shielded state (A) ([1]; 310 K): 0.436 ±0.001
kA→B ([1]; 310 K): 8.456 ± 0.024 s⁻¹
Occupancy of the more shielded state (A) ([1]; 320 K): 0.443 ±0.001
kA→B ([1]; 320 K): 18.949 ± 0.04 s⁻¹
ΔH^‡AB [1]: 15.8 ± 0.598 kcal/mol
ΔHAB [1]: -0.636 ± 0.0598 kcal/mol
fold induction at 100 µM (Nrf2): 10.9

SMILES: CCOC(=O)CN(c1ccc(N(CC(=O)OCC)S(=O)(=O)c2ccc(OC)cc2)c2ccccc12)S(=O)(=O)c1ccc(OC)cc1 [Compound 11, Diethyl 2,2'-(naphthalene-1,4-diylbis(((4-methoxyphenyl)sulfonyl)azanediyl))diacetate]
inhibition at 10 µM (Keap1 Kelch domain [3]): 0%

SMILES: COc1ccc(S(=O)(=O)N(CC#N)c2ccc(N(CC#N)S(=O)(=O)c3ccc(OC)cc3)c3ccccc23)cc1 [Compound 12, N,N'-(Naphthalene-1,4-diyl)bis(N-(cyanomethyl)-4-methoxybenzenesulfonamide)]
inhibition at 10 µM (Keap1 Kelch domain [3]): 0%
fold induction at 10 µM (NQO1): 0.89 ± 0.24

SMILES: COc1ccc(S(=O)(=O)N(Cc2nnn[nH]2)c2ccc(N(Cc3nnn[nH]3)S(=O)(=O)c3ccc(OC)cc3)c3ccccc23)cc1 [Compound 13, N,N'-(Naphthalene-1,4-diyl)bis(N-((1H-tetrazol-5-yl)methyl)-4-methoxybenzenesulfonamide)]
DSF ΔTi (Keap1 Kelch domain [2]): 20.4 ± 0.1 °C
IC50 (Keap1 Kelch domain [3]): 76 ± 3 nM
Kd (Keap1 Kelch domain [4]): 75.6 ± 33.9 nM
fold induction at 10 µM (NQO1): 1.94 ± 0.22
Occupancy of the more shielded state (A) ([1]; 300 K): 0.542 ±0.003
kA→B ([1]; 300 K): 1.063 ± 0.008 s⁻¹
Occupancy of the more shielded state (A) ([1]; 310 K): 0.548 ±0.001
kA→B ([1]; 310 K): 1.459 ± 0.006 s⁻¹
Occupancy of the more shielded state (A) ([1]; 320 K): 0.552 ±0.001
kA→B ([1]; 320 K): 2.927 ± 0.010 s⁻¹
ΔH^‡AB [1]: 10.4 ± 2.29 kcal/mol
ΔHAB [1]: -0.394 ± 0.0406 kcal/mol
Kd (Keap1): 17.1 ± 2.6 nM

SMILES: COc1ccc(S(=O)(=O)N(Cc2nnc(C)o2)c2ccc(N(Cc3nnc(C)o3)S(=O)(=O)c3ccc(OC)cc3)c3ccccc23)cc1 [Compound 17, N,N'-(Naphthalene-1,4-diyl)bis(4-methoxy-N-((5-methyl-1,3,4-oxadiazol-2-yl)methyl)benzenesulfonamide)]
DSF ΔTi (Keap1 Kelch domain [2]): 0.6 ± 0.1 °C
binding activity in FP assay (Keap1 Kelch domain [3]): not tolerated
inhibition at 10 µM (Keap1 Kelch domain [3]): 0%
fold induction at 10 µM (NQO1): 1.25 ± 0.18

Continued, in another order:

DSF ΔTi (Keap1 Kelch domain [2]): 7.6 ± 0.1 °C
SMILES: COc1ccc(S(=O)(=O)N(CC(N)=O)c2ccc(N(CC(N)=O)S(=O)(=O)c3ccc(OC)cc3)c3ccccc23)cc1 [Compound 4, 2,2'-(Naphthalene-1,4-diylbis(((4-methoxyphenyl)sulfonyl)azanediyl))diacetamide]

binding activity in FP assay (Keap1 Kelch domain [3]): inactive
inhibition at 10 µM (Keap1 Kelch domain [3]): 0%
SMILES: CCOC(=O)CN(c1ccc(N(CC(=O)O)S(=O)(=O)c2ccc(OC)cc2)c2ccccc12)S(=O)(=O)c1ccc(OC)cc1 [Compound 22, 2-(N-(4-(N-(2-Ethoxy-2-oxoethyl)-4-methoxyphenylsulfonamido)naphthalen-1-yl)-4-methoxyphenylsulfonamido)acetic acid]
fold induction at 10 µM (NQO1): 0.77 ± 0.18

DSF ΔTi (Keap1 Kelch domain [2]): 10.0 ± 0.2 °C
IC50 (Keap1 Kelch domain [3]): 143 ± 18 nM
SMILES: COc1ccc(S(=O)(=O)N(CC(N)=O)c2ccc(N(CC(=O)O)S(=O)(=O)c3ccc(OC)cc3)c3ccccc23)cc1 [Compound 23, 2-(N-(4-(N-(2-Amino-2-oxoethyl)-4-methoxyphenylsulfonamido)naphthalen-1-yl)-4-methoxyphenylsulfonamido)acetic acid]
fold induction at 10 µM (NQO1): 1.9 ± 0.05
